# Activity calls are given as the source filed them. For most assays here, no stated cut-off is given here; in the data, actives have a measured EC50 and inactives only a lower limit.
# Tests used:
# [1] = system: Streptococcus sp. 'group A'; assay: growth inhibition of control SK(-) GAS strain, dose response, counter-screen for streptokinase expression inhibitor project, luminescence, kanamycin, BacTiterGlo, confirmation (AID 1900); type: functional, organism-based; conditions: Streptococcus sp. 'group A'
# Streptococcus = assay: Group A Streptococcus viability loss, dose response, counter-screen for streptokinase expression inhibitor project, luminescence, BacTiterGlo (AID 1915); type: functional, organism-based; conditions: Streptococcus;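 further: potency for reduction of bacterial viability or growth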
# Streptokinase A = molecular target: T1, Streptokinase A (Streptococcus pyogenes serotype M1, UniProt P10520); assay: S. pyogenes streptokinase expression inhibitors, potency, dose response, plasminogen activation absorbance, OD405 (AID 1914); type: functional, Streptococcus pyogenes M1 GAS;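 further: secreted streptokinase activity via plasminogen activation per viability signal from cell pellet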
# T1 sequence (P10520 whole entry): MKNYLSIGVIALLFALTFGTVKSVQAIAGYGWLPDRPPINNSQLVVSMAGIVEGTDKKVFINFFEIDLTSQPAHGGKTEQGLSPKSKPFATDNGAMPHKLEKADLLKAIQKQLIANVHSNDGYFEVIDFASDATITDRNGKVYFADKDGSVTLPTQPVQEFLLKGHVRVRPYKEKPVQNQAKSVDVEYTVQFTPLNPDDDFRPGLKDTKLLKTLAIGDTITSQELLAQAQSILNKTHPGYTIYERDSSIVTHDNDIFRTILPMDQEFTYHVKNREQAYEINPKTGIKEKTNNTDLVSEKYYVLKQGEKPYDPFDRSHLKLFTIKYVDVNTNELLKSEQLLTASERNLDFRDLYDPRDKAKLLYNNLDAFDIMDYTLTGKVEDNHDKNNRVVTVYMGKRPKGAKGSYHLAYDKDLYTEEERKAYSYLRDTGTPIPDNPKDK
# [2] = inhibitors of intracellular T. cruzi replication, confirmation, NIH3T3 host cells, beta-gal luminescence (AID 2044); type: functional, cell-based;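 further: intracellular parasites grown in NIH/3T3 mouse fibroblasts as host cells; luminescent beta-galactosidase reporter signal from transgenic T. cruzi replicating inside host cells; inhibitors lower the luminescence signal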
# [3] = cytotoxicity toward NIH3T3 fibroblasts, dose response, counter-screen, cell-based, ATP luminescence, mouse fibroblasts (AID 2010); type: functional; conditions: NIH3T3;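 further: cells exposed to compound for about 90 hours before reading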
# [4] = HEp-2 cell cytotoxicity, dose response, cytotoxicity control for RSV inhibitor project, HTS (AID 2410); type: functional; conditions: human respiratory syncytial virus
# Cytochrome P450 3A4 = Cytochrome P450 3A4 (Homo sapiens, UniProt P08684);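 further: CYP3A4 tested as one member of a cytochrome P450 panel screen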
# Chain of Cytochrome P450 3A4 (P08684 whole entry): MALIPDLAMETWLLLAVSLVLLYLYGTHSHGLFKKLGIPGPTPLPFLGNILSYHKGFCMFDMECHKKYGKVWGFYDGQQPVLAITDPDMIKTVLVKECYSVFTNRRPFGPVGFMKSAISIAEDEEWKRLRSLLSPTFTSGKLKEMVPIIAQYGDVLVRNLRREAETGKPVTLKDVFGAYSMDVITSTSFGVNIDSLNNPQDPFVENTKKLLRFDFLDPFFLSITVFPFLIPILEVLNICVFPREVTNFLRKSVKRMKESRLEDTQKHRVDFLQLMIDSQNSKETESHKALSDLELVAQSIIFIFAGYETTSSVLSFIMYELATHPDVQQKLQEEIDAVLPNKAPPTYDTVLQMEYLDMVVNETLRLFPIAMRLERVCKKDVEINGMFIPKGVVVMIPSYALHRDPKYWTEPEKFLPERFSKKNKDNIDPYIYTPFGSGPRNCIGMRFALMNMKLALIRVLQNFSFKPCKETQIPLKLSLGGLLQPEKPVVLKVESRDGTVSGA
SMILES,EC50 [1],EC50 (Streptococcus),EC50 [2],EC50 [3],further results
CCOC(=O)C1CCN(C2=C(NS(=O)(=O)c3ccc(Cl)cc3)C(=O)c3ccccc3C2=O)CC1,8.11 µM (active),> 150 µM (not active),,,EC50 (Streptokinase A): 27 µM (active)
Cc1nc(S)c2c(n1)-c1ccccc1CC21CCCCC1,1.15 µM (active),3.57 µM (active),,,
CCOC(=O)c1c(NC(=O)CSc2nnnn2-c2ccccc2OCC)sc2c1CC(C)(C)NC2(C)C,,,1.31 µM (active),> 30 µM (not active),
Cc1nc(NC(=O)c2ccc(Cl)cc2)sc1-c1csc(Nc2cccc(F)c2)n1,1.67 µM (active),21.4 µM (active),,,EC50 (Streptokinase A): > 150 µM (not active)
CCS(=O)(=O)Nc1ccc(C2=NN(C(=O)c3ccco3)C(c3cccc(F)c3)C2)cc1 (stereo not drawn),,,,,CC50 [4]: 32.9 µM (active)
Cc1cc(O)c(NC(=O)c2cc([N+](=O)[O-])ccc2Cl)cc1C,,,,,CC50 [4]: 23.3 µM (active)
CC(C)CCn1c(=O)c(C(=O)N/N=C/c2cccc(F)c2)c(O)c2ccccc21,2.24 µM (active),7.41 µM (active),,,
N[C@@H](Cc1c[nH]cn1)C(=O)O [HISTIDINE],,,,,AC50 (Cytochrome P450 3A4): 0.794 µM (inconclusive)
CNC(=O)c1sc(-c2cccnc2)nc1C,,,,,AC50 (Cytochrome P450 3A4): 31.6 µM (inconclusive)
CN(C)CCOCCOc1ccc(Cl)cc1Br,,,0.937 µM (active),> 60 µM (inconclusive),
c1ccc(Nc2nc3ccccc3[nH]2)nc1,3.59 µM (active),> 150 µM (not active),,,EC50 (Streptokinase A): > 150 µM (not active)
c1ccc(-c2cccc(N3CC[C@@]4(CCCNC4)C3)c2)cc1,,,,,AC50 (Cytochrome P450 3A4): 15.8 µM (inconclusive)
Cc1ccc(C(=O)OC2OC(=O)C(Cl)=C2N2CCOCC2)cc1 (stereo not drawn),0.884 µM (active),2.04 µM (active),,,
CC(=O)Nc1cccc(-c2csc(Nc3ccc(Cl)cn3)n2)c1,,,,,CC50 [4]: 9.11 µM (active)
CC(=O)NCCn1c(SCc2cc(F)ccc2F)nc2ccccc2c1=O,,,0.487 µM (active),> 60 µM (not active),
CCOc1cc2c(cc1OCC)-n1cccc1C(c1cc(OC)ccc1F)NC2 (stereo not drawn),,,,,CC50 [4]: 39.8 µM (active)

SMILES,EC50 [1],EC50 (Streptococcus),EC50 [2],EC50 [3],further results
CC(C)(C)n1nnnc1C(c1cccnc1)N1CCN(c2ccccc2)CC1 (stereo not drawn),,,0.666 µM (active),> 60 µM (not active),
O=C(NCc1ccco1)C(c1ccccc1F)N(Cc1cccnc1)C(=O)Cn1nnc2ccccc21 (stereo not drawn),,,1.68 µM (active),> 60 µM (not active),
CN1CCN(c2ccc(S(=O)(=O)N3CCCCC3)cc2NC(=O)COc2cccc(Cl)c2)CC1,,,0.629 µM (active),> 30 µM (not active),
CCCCC(=O)Nc1ccc(C(=O)OC2CCCCC2)cc1,,,,,CC50 [4]: 22.8 µM (active)
Cc1cnc(CNc2ccnc(-c3c(C)noc3C)n2)cn1,,,,,AC50 (Cytochrome P450 3A4): 10 µM (inconclusive)
N#C/C(=N\Nc1ccc(S(=O)(=O)N2CCOCC2)cc1)C(N)=S,> 150 µM (not active),> 150 µM (not active),,,EC50 (Streptokinase A): > 150 µM (not active)
COc1ccccc1CN1CCCC2(CCN(C(=O)c3ccco3)CC2)C1,,,,,AC50 (Cytochrome P450 3A4): 25.1 µM (inconclusive)
CCCSc1nsc(NC(=O)CCC)n1,,,1.04 µM (active),> 60 µM (not active),
CCN(CCCNC(=O)CNC(=O)c1nn(-c2ccc(OC)cc2)c(=O)c2ccccc12)c1cccc(C)c1,,,,,CC50 [4]: 46 µM (active)
Cc1ccc2sc(NNC(=O)c3cc(-c4cccs4)nc4ccccc34)nc2c1C,0.758 µM (active),1.48 µM (active),,,
Cc1nn(-c2ccc([N+](=O)[O-])cc2)c(O)c1/C=N/CCN1CCN(C(=O)c2ccc(Br)cc2)CC1,,,10.7 µM (active),39.9 µM (active),
COc1ccc(C(=O)C2CCCN(Cc3ccc4nonc4c3)C2)c(OC)c1 (stereo not drawn),,,0.97 µM (active),> 60 µM (not active),
Cc1cc(N/N=C/c2cccc(Br)c2)nc2ccccc12,7.14 µM (active),7.4 µM (active),,,EC50 (Streptokinase A): > 150 µM (not active)
COc1ccc(-n2c(=O)c(-c3cccs3)nc3cnc(Nc4cccc(OC)c4)nc32)cc1,,,,,AC50 (Cytochrome P450 3A4): 1.58 µM (inconclusive)
CSc1ccc(S(=O)(=O)NCC(=O)OCC(=O)N2CCCC2=O)cc1[N+](=O)[O-],4.7 µM (active),> 150 µM (not active),,,EC50 (Streptokinase A): > 150 µM (not active)
Cc1ccc(N2C(=O)CC(Sc3nc4ccccc4o3)C2=O)cc1Cl (stereo not drawn),,,2.16 µM (active),8.27 µM (active),

# — ChEMBL document CHEMBL1201862, “PubChem BioAssay data set” (2004)
